Assay results: patent US20120165319A1, “INHIBITORS OF INTERLEUKIN-1 BETA CONVERTING ENZYME” (VERTEX PHARMACEUTICALS INCORPORATED, priority 1995, published 2012)
pIC50, pKi: −log10 of the molar value. Like-named read-outs stand apart in the source and are kept apart here. One block for each compound: values may come before it.

Legend:
[1] = tested on: IL-1β, human whole blood; assay: Whole blood assay for IL-1β production; format: cell-based; details: read-out: Whole human blood IC50
Protocol: The whole blood assay is a simple method for measuring the production of IL-1b (or other cytokines) and the activity of potential inhibitors. The complexity of this assay system, with its full complement of lymphoid and inflammatory cell types, spectrum of plasma proteins and red blood cells is an ideal in vitro representation of human in vivo physiologic conditions.
Pyrogen-free syringes (˜30 cc) Pyrogen-free sterile vacuum tubes containing lyophilized Na2EDTA (4.5 mg/10 ml tube) Human whole blood sample (˜30-50 cc) 1.5 ml eppendorf tubes Test compound stock solutions (˜25 mM in DMSO or other solvent) Endotoxin-free sodium chloride solution (0.9%) and HBSS Lipopolysaccharide (Sigma; Cat. # L-3012) stock solution at 1 mg/ml in HBSS
IL-1β ELISA Kit (R & D Systems; Cat # DLB50)
TNFα ELISA Kit (R & D Systems; Cat # DTA50)
Whole Blood Assay Experimental Procedure:
Set incubator or water bath at 30° C. Aliquot 0.25 ml of blood into 1.5 ml eppendorf tubes. Note: be sure to invert the whole blood sample tubes after every two aliquots. Differences in replicates may result if the cells sediment and are not uniformly suspended. Use of a positive displacement pipette will also minimize differences between replicate aliquots.
Prepare drug dilutions in sterile pyrogen-free saline by serial dilution. A dilution series which brackets the apparent Ki for a test compound determined in an ICE inhibition assay is generally used for the primary compound screen.
Add 25 μl test compound dilution or vehicle control and gently mix the sample. Then add 5.0 μl LPS solution (250 ng/ml stocked prepared fresh: 5.0 ng/ml final concentration LPS), and mix again. Incubate the tubes at 30° C. in a water bath for 16-18 hr with occasional mixing. Alternatively, the tubes can be placed in a rotator set at 4 rpm for the same incubation period. This assay should be set up in duplicate or triplicate with the following controls: negative control—no LPS; positive control—no test inhibitor; vehicle control—the highest concentration of DMSO or compound solvent used in the experiment. Additional saline is added to all control tubes to normalize volumes for both control and experimental whole blood test samples
After the incubation period, whole blood samples are centrifuged for 10 minutes at ˜2000 rpm in the microfuge, plasma is transferred to a fresh microfuge tube and centrifuged at 1000×g to pellet residual platelets if necessary. Plasma samples may be stored frozen at −70° C. prior to assay for cytokine levels by ELISA.
We have used R & D Systems (614 McKinley Place N.E. Minneapolis, Minn. 55413) Quantikine kits for measurement of IL-1β and TNF-α. The assays are performed according to the manufacturer's directions.
We have observed IL-1β levels of ˜1-5 ng/ml in positive controls among a range of individuals. A 1:200 dilution of plasma for all samples has been sufficient in our experiments for ELISA results to fall on the linear range of the ELISA standard curves. It may be necessary to optimize standard dilutions if you observe differences in the whole blood assay. Nerad, J. L. et al., J. Leukocyte Biol., 52, pp. 687-692 (1992).

[2] = target: T1, ICE (Homo sapiens, UniProt P29466); assay: Enzyme assay with UV-visible substrate (visible ICE assay, Succinyl-Tyr-Val-Ala-Asp-pNitroanilide); format: biochemical
T1 sequence (P29466 120-297 limits assumed): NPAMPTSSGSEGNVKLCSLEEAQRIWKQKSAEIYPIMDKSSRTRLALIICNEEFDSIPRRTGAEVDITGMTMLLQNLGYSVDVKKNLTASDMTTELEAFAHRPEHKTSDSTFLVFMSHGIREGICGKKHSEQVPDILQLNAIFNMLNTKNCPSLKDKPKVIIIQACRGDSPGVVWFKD
T1 sequence (P29466 317-404 limits assumed): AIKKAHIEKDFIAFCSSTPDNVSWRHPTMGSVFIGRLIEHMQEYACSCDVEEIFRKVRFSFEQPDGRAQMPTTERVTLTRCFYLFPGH
Method in brief: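 Read-out is the rate of pNA chromophore release (mOD/min, linear fit) monitored at 405-603 nm over 20 min at 37° C. Substrate was succinyl-Tyr-Val-Ala-Asp-pNitroanilide, added after a 15 min room-temperature preincubation of ICE with inhibitor.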

[3] = Homo sapiens, * = values obtained upon reassay

SMILES: CC(=O)N1C[C@H](NC(=O)c2cc(C)c(O)c(C)c2)C(=O)N(CC(=O)N[C@H]2CC(=O)OC2OCc2ccccc2)c2ccccc21 (mixture of isomers) [Compound 670, (3S)-2-Oxo-3-(3,5-dimethyl-4-hydroxybenzoyl)amino-5-acetyl-N-[(2RS,3S)-benzyloxy-5-oxo-tetrahydrofuran-3-yl]-2,3,4,5-tetrahydro-1H-1,5-benzodiazepine-1-acetamide]
pIC50 ([1]; Homo sapiens, Table 17): 5.35

SMILES: CC(=O)OCC(=O)N1C[C@H](NC(=O)c2ccccc2)C(=O)N(CC(=O)N[C@H]2CC(=O)OC2OCc2ccccc2)c2ccccc21 (mixture of isomers) [Compound 682, (3S)-2-Oxo-3-benzoylamino-5-(2-acetoxy)acetyl-N-[(2RS,3S)-benzyloxy-5-oxo-tetrahydrofuran-3-yl]-2,3,4,5-tetrahydro-1H-1,5-benzodiazepine-1-acetamide]
pIC50 ([1]; Homo sapiens, Table 17): 5.89

SMILES: COCC(=O)N1C[C@H](NC(=O)c2cc(C)c(O)c(C)c2)C(=O)N(CC(=O)N[C@H]2CC(=O)OC2OCc2ccccc2)c2ccccc21 (mixture of isomers) [Compound 688b, (3S)-2-Oxo-3-(3,5-dimethyl-4-hydroxybenzoyl)amino-5-methoxyacetyl-N-[(2RS,3S)-benzyloxy-5-oxo-tetrahydrofuran-3-yl]-2,3,4,5-tetrahydro-1H-1,5-benzodiazepine-1-acetamide]
pIC50 ([1]; Homo sapiens, Table 17): 5.89

SMILES: CN(C)c1cccc(C(=O)N[C@H]2CCC(=O)N3CCC[C@@H](C(=O)N[C@H]4CC(=O)OC4OCc4ccccc4)N3C2=O)c1 (mixture of isomers) [Compound 213g, [1S,9S (2RS,3S)]9-[(3-Dimethylaminobenzoyl)amino]-6,10-dioxo-1,2,3,4,7,8,9,10-octahydro-N-(2-Benzyloxy-5-oxotetrahydrofuran-3-yl)-6H-pyridazino[1,2-a][1,2]diazepine-1-carboxamide]
pIC50 ([1]; Table 17): 5.66

SMILES: CCOC1OC(=O)C[C@@H]1NC(=O)[C@@H]1CCCN2C(=O)CC[C@H](NC(=O)c3nccc4ccccc34)C(=O)N12 (mixture of isomers) [Compound 550q, [1S,9S(2RS,3S)]N-(2-Ethoxy-5-oxotetrahydrofuran-3-yl)-6,10-dioxo-9-(isoquinolin-1-oylamino)-1,2,3,4,7,8,9,10-octahydro-6-H-pyridazino[1,2-a][1,2]diazepine-1-carboxamide]
pIC50 ([1]; Table 17): 6.15

SMILES: CCOC1OC(=O)C[C@@H]1NC(=O)CN1C(=O)[C@@H](NC(=O)c2cc(C)c(O)c(C)c2)CN(C(=O)CO)c2ccccc21 (mixture of isomers) [Compound 692b, (3S)-2-Oxo-3-(3,5-dimethyl-4-hydroxybenzoyl)amino-5-hydroxyacetyl-N-[(2RS,3S)-ethoxy-5-oxo-tetrahydrofuran-3-yl]-2,3,4,5-tetrahydro-1H-1,5-benzodiazepine-1-acetamide]
pIC50 ([1]; Table 17): 5.74

SMILES: CC(=O)N(C)c1ccc(C(=O)N[C@H]2CCC(=O)N3CCC[C@@H](C(=O)N[C@H](C=O)CC(=O)O)N3C2=O)cc1 [Compound 448]
pIC50 [1, 3]: 5.40
pKi ([2]; Table 5): 6.89

SMILES: CC(=O)N1C[C@H](NC(=O)c2ccccc2)C(=O)N(CC(=O)N[C@H](C=O)CC(=O)O)c2c(C)cc(C)cc21 [Compound 605o, (3S)-3-[(3S)-2-Oxo-3-benzoylamino-5-acetyl-2,3,4,5-tetrahydro-7,9-dimethyl-1H-1,5-benzodiazepin-1-acetylamino]-4-oxo-butyric acid]
pIC50 [1, 3]: 4.74
pKi ([2]; Table 5): 7.14

SMILES: COc1c(Cl)cc(C(=O)N[C@H]2CN(C(C)=O)c3ccccc3N(CC(=O)N[C@H](C=O)CC(=O)O)C2=O)cc1Cl [Compound 669, (3S)-3-[(3S)-2-Oxo-3-(3,5-dichloro-4-methoxybenzoyl)amino-5-acetyl-2,3,4,5-tetrahydro-1H-1,5-benzodiazepine-1-acetylamino]-4-oxo-butyric acid]
pIC50 ([1]; Homo sapiens, Table 17): 5.00
pKi ([2]; Table 17): 7.85

SMILES: COCC(=O)N1C[C@H](NC(=O)c2cc(C)c(O)c(C)c2)C(=O)N(CC(=O)N[C@H](C=O)CC(=O)O)c2ccc(F)cc21 [Compound 689b-1, (3S)-3-[(3S)-2-Oxo-3-(3,5-dimethyl-4-hydroxybenzoyl)amino-5-methoxyacetyl-2,3,4,5-tetrahydro-7-fluoro-1H-1,5-benzodiazepine-1-acetylamino]-4-oxobutyric acid]
pIC50 ([1]; Homo sapiens, Table 27): 5.57
pKi ([2]; Table 27): 8.46

SMILES: Cc1cc(C(=O)N[C@H]2CN(C(=O)CO)c3ccccc3N(CC(=O)NC3CC(=O)OC3OCc3ccccc3)C2=O)cc(C)c1O (stereo partly drawn) [Compound 695c, (3S)-2RS-Oxo-3-(3,5-dimethyl-4-hydroxybenzoyl)amino-5-hydroxyacetyl-N-(2-benzyloxy-5-oxo-tetrahydrofuran-3-yl)-2,3,4,5-tetrahydro-1H-1,5-benzodiazepine-1-acetamide]
pIC50 ([1]; Table 17): 5.60

SMILES: O=C[C@H](CC(=O)O)NC(=O)CN1C(=O)[C@@H](NC(=O)c2nccc3ccccc23)CN(C=O)c2ccccc21 [Compound 698, (3S)-3-[(3S)-2-oxo-3-isoquinolin-1-oylamino-5-formyl-2,3,4,5-tetrahydro-1H-1,5-benzodiazepine-1-acetylamino]-4-oxobutyric acid]
pIC50 ([1]; Homo sapiens, Table 27): 4.87
pKi ([2]; Table 27): 7.74

More lines, now with the values ahead:

pIC50 ([1]; Homo sapiens, Table 17): 5.52
SMILES: COCC(=O)N1C[C@H](NC(=O)c2cc(Cl)c(O)c(Cl)c2)C(=O)N(CC(=O)N[C@H]2CC(=O)OC2OCc2ccccc2)c2ccccc21 (mixture of isomers) [Compound 688a, (3S)-2-Oxo-3-(3,5-dichloro-4-hydroxybenzoyl)amino-5-methoxyacetyl-N-[(2RS,3S)-benzyloxy-5-oxo-tetrahydrofuran-3-yl]-2,3,4,5-tetrahydro-1H-1,5-benzodiazepine-1-acetamide]

pIC50 ([1]; Homo sapiens, Table 17): 5.80
SMILES: Cc1cc(C(=O)N[C@H]2CN(C(=O)CO)c3ccccc3N(CC(=O)N[C@H]3CC(=O)OC3OCc3ccccc3)C2=O)cc(C)c1O (mixture of isomers) [Compound 690a, (3S)-2-Oxo-3-(3,5-dimethyl-4-hydroxybenzoyl)amino-5-hydroxyacetyl-N-[(2RS,3S)-benzyloxy-5-oxo-tetrahydrofuran-3-yl]-2,3,4,5-tetrahydro-1H-1,5-benzodiazepine-1-acetamide]

pIC50 ([1]; * = values obtained upon reassay): 4.85
pKi ([2]; Table 5): 6.78
SMILES: CC(C)(C)OC(=O)C[C@@H](C=NOCCc1ccccc1)NC(=O)[C@@H]1CCCN2C(=O)CC[C@H](NC(=O)c3ccccc3)C(=O)N12 [Compound 307b, [3S(1S,9S)3-(9-Benzoylamino-6,10-dioxo-1,2,3,4,7,8,9,10-octahydro-6H-pyridazino-[1,2-a][1,2]diazapine-1-carboxamido)-amino]-4-oxobutanoic acid t-butyl ester, O-(2-(phenyl)ethyl)oxime]

pIC50 [1, 3]: 5.40
pKi ([2]; Table 5): 6.87
SMILES: O=C[C@H](CC(=O)O)NC(=O)[C@@H]1CCCN2C(=O)CC[C@H](NC(=O)c3ncc[nH]3)C(=O)N12 [Compound 445]

pIC50 [1, 3]: 5.52
pKi ([2]; Table 5): 7.21
SMILES: O=C[C@H](CC(=O)O)NC(=O)[C@@H]1CCCN2C(=O)CC[C@H](NC(=O)c3cnns3)C(=O)N12 [Compound 446]

pIC50 ([1]; Homo sapiens, Table 17): 6.21
SMILES: COc1cccc(OC)c1C(=O)C(=O)N[C@H]1CN(C(=O)CO)c2ccccc2N(CC(=O)N[C@H]2CC(=O)OC2OCc2ccccc2)C1=O (stereo partly drawn) [Compound 677, (3S)-2-Oxo-3-(1,6-dimethoxybenzoylformyl)amino-5-(2-hydroxy)acetyl-N-[(2RS,3S)-benzyloxy-5-oxo-tetrahydrofuran-3-yl]-2,3,4,5-tetrahydro-1H-1,5-benzodiazepine-1-acetamide]

pIC50 ([1]; Homo sapiens, Table 27): 5.30
pKi ([2]; Table 27): 8.74
SMILES: Nc1c(Cl)cc(C(=O)N[C@H]2CN(C(=O)CO)c3ccccc3N(CC(=O)N[C@H](C=O)CC(=O)O)C2=O)cc1Cl [Compound 697]
